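Where inhibition never reached the appropriate level, the endpoint shown equals the highest concentration tested. Otherwise, values were interpolated linearly from a five-concentration, 48-hour dose response in 96-well plates. GI50 = concentration required for 50% inhibition of growth.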 Active and inactive are the calls of the source. Rule as the data show it: active = GI50 up to about 1.1 µM and inactive = higher.
Assays:
Assay in all cases: growth of human tumour cells (NCI), 48 h
[1] = tested on: COLO 205
[2] = tested on: ACHN
[3] = tested on: OVCAR-8
[4] = tested on: SK-MEL-5
[5] = tested on: SW-620
[6] = tested on: CAKI-1
[7] = tested on: SN12C
[8] = tested on: SF-539
[9] = tested on: KM12
[10] = tested on: UO-31
[11] = tested on: Malme-3M
[12] = tested on: OVCAR-4
[13] = tested on: TK-10
[14] = tested on: K562
[15] = tested on: SK-MEL-2
[16] = tested on: HOP-62
[17] = tested on: BT-549
[18] = tested on: U-251
[19] = tested on: HT-29
[20] = tested on: SK-OV-3
[21] = tested on: MDA-MB-231
[22] = tested on: LOX IMVI
[23] = tested on: A549
[24] = tested on: MDA-N
[25] = tested on: SNB-19
[26] = tested on: MCF7
[27] = tested on: HCT-15
[28] = tested on: EKVX
[29] = tested on: Hs-578T
[30] = tested on: NCI-H23
[31] = tested on: RPMI-8226
[32] = tested on: HOP-92
[33] = tested on: 786-0
[34] = tested on: SF-268
[35] = tested on: A498
[36] = tested on: T47D
[37] = tested on: RXF 393
[38] = tested on: HCT-116
[39] = tested on: M14
[40] = tested on: NCI/ADR-RES
[41] = tested on: SR
[42] = tested on: DU-145
[43] = tested on: NCI-H226
[44] = tested on: SNB-75
[45] = tested on: SF-295
[46] = tested on: OVCAR-5
[47] = tested on: CCRF-CEM
[48] = tested on: NCI-H522
[49] = tested on: MDA-MB-435
[50] = tested on: OVCAR-3
[51] = tested on: IGROV-1
[52] = tested on: UACC-257
[53] = tested on: PC-3
[54] = tested on: SK-MEL-28
[55] = tested on: MOLT-4
[56] = tested on: HL-60
[57] = tested on: NCI-H460
[58] = tested on: UACC-62

Question: With `Cc1ccc([N+](=O)[O-])cc1S(=O)(=O)Nc1ccc(C2=NN(C(=O)c3ccccc3)C(c3ccccc3)C2)cc1` (stereo not given) as the molecule, how does the GI50 [1] read?
Answer: 16.9 µM (inactive)

Question: What about the GI50 [2] of the same molecule?
Answer: 19 µM (inactive)

Question: And the GI50 [3]?
Answer: 18.9 µM (inactive)

Question: And the GI50 [4]?
Answer: 12.9 µM (inactive)

Question: What about the GI50 [5] of the same molecule?
Answer: 40.7 µM (inactive)

Question: And the GI50 [6]?
Answer: 20 µM (inactive)

Question: And the GI50 [7]?
Answer: 21.8 µM (inactive)

Question: What about the GI50 [8] of the same molecule?
Answer: 16.6 µM (inactive)

Question: What about the GI50 [9] of the same molecule?
Answer: 26.2 µM (inactive)

Question: What about the GI50 [10] of the same molecule?
Answer: 22.4 µM (inactive)

Question: And the GI50 [11]?
Answer: 18.2 µM (inactive)

Question: What about the GI50 [12] of the same molecule?
Answer: 18.2 µM (inactive)

Question: What about the GI50 [13] of the same molecule?
Answer: 18 µM (inactive)

Question: What about the GI50 [14] of the same molecule?
Answer: 18 µM (inactive)

Question: And the GI50 [15]?
Answer: 14.4 µM (inactive)

Question: And the GI50 [16]?
Answer: 15.9 µM (inactive)

Question: And the GI50 [17]?
Answer: 22.6 µM (inactive)

Question: And the GI50 [18]?
Answer: 16.6 µM (inactive)

Question: And the GI50 [19]?
Answer: 24.9 µM (inactive)

Question: What about the GI50 [20] of the same molecule?
Answer: 16 µM (inactive)

Question: What about the GI50 [21] of the same molecule?
Answer: 15.5 µM (inactive)

Question: And the GI50 [22]?
Answer: 30.5 µM (inactive)

Question: And the GI50 [23]?
Answer: 18.7 µM (inactive)

Question: What about the GI50 [24] of the same molecule?
Answer: 21.2 µM (inactive)

Question: And the GI50 [25]?
Answer: 29.1 µM (inactive)

Question: And the GI50 [26]?
Answer: 17.1 µM (inactive)

Question: And the GI50 [27]?
Answer: 19.5 µM

Question: And the GI50 [28]?
Answer: 16.3 µM (inactive)

Question: And the GI50 [29]?
Answer: 22.1 µM (inactive)

Question: And the GI50 [30]?
Answer: 21.4 µM (inactive)

Question: And the GI50 [31]?
Answer: 25.5 µM (inactive)

Question: What about the GI50 [32] of the same molecule?
Answer: 14.5 µM (inactive)

Question: And the GI50 [33]?
Answer: 17.4 µM (inactive)

Question: And the GI50 [34]?
Answer: 18.5 µM (inactive)

Question: And the GI50 [35]?
Answer: 10.9 µM (inactive)

Question: What about the GI50 [36] of the same molecule?
Answer: 10.6 µM (inactive)

Question: And the GI50 [37]?
Answer: 12.1 µM (inactive)

Question: And the GI50 [38]?
Answer: 18.1 µM (inactive)

Question: And the GI50 [39]?
Answer: 24.4 µM (inactive)

Question: And the GI50 [40]?
Answer: 30.4 µM (inactive)

Question: And the GI50 [41]?
Answer: 26.4 µM (inactive)

Question: What about the GI50 [42] of the same molecule?
Answer: 34 µM (inactive)

Question: What about the GI50 [43] of the same molecule?
Answer: 15.5 µM (inactive)

Question: And the GI50 [44]?
Answer: 16.9 µM (inactive)

Question: And the GI50 [45]?
Answer: 16.9 µM (inactive)

Question: And the GI50 [46]?
Answer: 41.3 µM (inactive)

Question: And the GI50 [47]?
Answer: 24.9 µM (inactive)

Question: What about the GI50 [48] of the same molecule?
Answer: 11.5 µM (inactive)

Question: And the GI50 [49]?
Answer: 21.2 µM (inactive)

Question: And the GI50 [50]?
Answer: 11.9 µM (inactive)

Question: And the GI50 [51]?
Answer: 17 µM (inactive)

Question: And the GI50 [52]?
Answer: 20.6 µM (inactive)

Question: What about the GI50 [53] of the same molecule?
Answer: 19.8 µM (inactive)

Question: What about the GI50 [54] of the same molecule?
Answer: 41.6 µM (inactive)

Question: What about the GI50 [55] of the same molecule?
Answer: 15.5 µM (inactive)

Question: And the GI50 [56]?
Answer: 21.5 µM (inactive)

Question: Which results are given for `Nc1nc(-c2ccccc2)c(CC(=O)O)s1`?
Answer: GI50 [1]: > 100 µM (inactive); GI50 [2]: > 100 µM (inactive); GI50 [3]: > 100 µM (inactive); GI50 [4]: > 100 µM (inactive); GI50 [5]: > 100 µM (inactive); GI50 [6]: > 100 µM (inactive); GI50 [57]: > 100 µM (inactive); GI50 [7]: > 100 µM (inactive); GI50 [8]: > 100 µM (inactive); GI50 [9]: > 100 µM (inactive); GI50 [10]: > 100 µM (inactive); GI50 [11]: > 100 µM (inactive); GI50 [12]: > 100 µM (inactive); GI50 [13]: > 100 µM (inactive); GI50 [14]: > 100 µM (inactive); GI50 [15]: > 100 µM (inactive); GI50 [16]: > 100 µM (inactive); GI50 [17]: > 100 µM (inactive); GI50 [18]: > 100 µM (inactive); GI50 [19]: > 100 µM (inactive); GI50 [20]: > 100 µM (inactive); GI50 [21]: > 100 µM (inactive); GI50 [22]: > 100 µM (inactive); GI50 [23]: > 100 µM (inactive); GI50 [24]: > 100 µM (inactive); GI50 [25]: > 100 µM (inactive); GI50 [26]: > 100 µM (inactive); GI50 [27]: > 100 µM; GI50 [28]: > 100 µM (inactive); GI50 [29]: > 100 µM (inactive); GI50 [31]: > 100 µM (inactive); GI50 [32]: > 100 µM (inactive); GI50 [33]: > 100 µM (inactive); GI50 [58]: > 100 µM (inactive); GI50 [34]: > 100 µM (inactive); GI50 [35]: > 100 µM (inactive); GI50 [36]: > 100 µM (inactive); GI50 [37]: > 100 µM (inactive); GI50 [38]: > 100 µM (inactive); GI50 [39]: > 100 µM (inactive); GI50 [40]: > 100 µM (inactive); GI50 [41]: > 100 µM (inactive); GI50 [42]: > 100 µM (inactive); GI50 [43]: > 100 µM (inactive); GI50 [44]: > 100 µM (inactive); GI50 [45]: > 100 µM (inactive); GI50 [46]: > 100 µM (inactive); GI50 [48]: > 100 µM (inactive); GI50 [49]: > 100 µM (inactive); GI50 [50]: > 100 µM (inactive); GI50 [51]: > 100 µM (inactive); GI50 [52]: > 100 µM (inactive); GI50 [53]: > 100 µM (inactive); GI50 [54]: > 100 µM (inactive); GI50 [55]: > 100 µM (inactive); GI50 [56]: 20 µM (inactive)

Question: What does the source list for `c1c[nH]c(CN2CCOCC2)n1`?
Answer: GI50 [1]: > 100 µM (inactive); GI50 [2]: > 100 µM (inactive); GI50 [3]: > 100 µM (inactive); GI50 [4]: > 100 µM (inactive); GI50 [5]: > 100 µM (inactive); GI50 [6]: > 100 µM (inactive); GI50 [57]: > 100 µM (inactive); GI50 [7]: > 100 µM (inactive); GI50 [8]: > 100 µM (inactive); GI50 [9]: > 100 µM (inactive); GI50 [10]: > 100 µM (inactive); GI50 [11]: > 100 µM (inactive); GI50 [12]: > 100 µM (inactive); GI50 [13]: > 100 µM (inactive); GI50 [14]: > 100 µM (inactive); GI50 [15]: > 100 µM (inactive); GI50 [16]: > 100 µM (inactive); GI50 [17]: > 100 µM (inactive); GI50 [18]: > 100 µM (inactive); GI50 [19]: > 100 µM (inactive); GI50 [20]: > 100 µM (inactive); GI50 [21]: > 100 µM (inactive); GI50 [22]: > 100 µM (inactive); GI50 [23]: > 100 µM (inactive); GI50 [24]: > 100 µM (inactive); GI50 [25]: > 100 µM (inactive); GI50 [26]: > 100 µM (inactive); GI50 [27]: > 100 µM; GI50 [28]: > 100 µM (inactive); GI50 [29]: > 100 µM (inactive); GI50 [30]: > 100 µM (inactive); GI50 [31]: > 100 µM (inactive); GI50 [32]: > 100 µM (inactive); GI50 [33]: > 100 µM (inactive); GI50 [58]: > 100 µM (inactive); GI50 [34]: > 100 µM (inactive); GI50 [35]: > 100 µM (inactive); GI50 [36]: > 100 µM (inactive); GI50 [37]: > 100 µM (inactive); GI50 [38]: > 100 µM (inactive); GI50 [39]: > 100 µM (inactive); GI50 [40]: > 100 µM (inactive); GI50 [41]: > 100 µM (inactive); GI50 [42]: > 100 µM (inactive); GI50 [43]: > 100 µM (inactive); GI50 [44]: > 100 µM (inactive); GI50 [45]: > 100 µM (inactive); GI50 [46]: > 100 µM (inactive); GI50 [47]: > 100 µM (inactive); GI50 [48]: > 100 µM (inactive); GI50 [49]: > 100 µM (inactive); GI50 [50]: > 100 µM (inactive); GI50 [51]: > 100 µM (inactive); GI50 [52]: > 100 µM (inactive); GI50 [53]: > 100 µM (inactive); GI50 [54]: > 100 µM (inactive); GI50 [55]: > 100 µM (inactive); GI50 [56]: > 100 µM (inactive)
